Ka data for 6 compounds are collected here from paper PMC5947510 (2015).

This assay deals with pre-miR-27a (RNA, miRNA) GGGCUGAGGAGCAGGGCUUAGCUGCUUGUGAGCAGGGUCCACACCAAGUCGUGUUCACAGUGGCUAAGUUCCGCCCCCCAG
Put plainly: fluorescence titration (bisbenzimidazole emission). The following applies: 10 mM NaCl, 1 mM MgCl2; 10 mM sodium cacodylate, pH 7.5, 25 °C; compound 500 nM.

In turn, `CN1CCN(c2ccc3nc(-c4ccc5nc(-c6ccc(OCCCCCCCCCc7cn(C[C@H]8O[C@@H](O[C@@H]9[C@@H](O)[C@H](N)C[C@H](N)[C@H]9O[C@H]9O[C@H](CN)[C@@H](O)[C@H](O)[C@H]9N)[C@H](O)[C@@H]8O[C@H]8O[C@@H](CN)[C@@H](O)[C@H](O)[C@H]8N)nn7)cc6)[nH]c5c4)[nH]c3c2)CC1` showed a Ka of 3.2e+08 M⁻¹.
With `CN1CCN(c2ccc3nc(-c4ccc5nc(-c6ccc(OCCCCCCCCOCc7cn(C[C@H]8O[C@@H](O[C@@H]9[C@@H](O)[C@H](N)C[C@H](N)[C@H]9O[C@H]9O[C@H](CN)[C@@H](O)[C@H](O)[C@H]9N)[C@H](O)[C@@H]8O[C@H]8O[C@@H](CN)[C@@H](O)[C@H](O)[C@H]8N)nn7)cc6)[nH]c5c4)[nH]c3c2)CC1` the figure was 2.5e+07 M⁻¹; with `CN1CCN(c2ccc3nc(-c4ccc5nc(-c6ccc(OCCCCCCOCc7cn(C[C@H]8O[C@@H](O[C@@H]9[C@@H](O)[C@H](N)C[C@H](N)[C@H]9O[C@H]9O[C@H](CN)[C@@H](O)[C@H](O)[C@H]9N)[C@H](O)[C@@H]8O[C@H]8O[C@@H](CN)[C@@H](O)[C@H](O)[C@H]8N)nn7)cc6)[nH]c5c4)[nH]c3c2)CC1`, 1.2e+08 M⁻¹; with `CN1CCN(c2ccc3nc(-c4ccc5nc(-c6ccc(O)cc6)[nH]c5c4)[nH]c3c2)CC1`, 3.4e+06 M⁻¹.
With `CN1CCN(c2ccc3nc(-c4ccc5nc(-c6ccc(OCCCCCCCCCCOCc7cn(C[C@H]8O[C@@H](O[C@@H]9[C@@H](O)[C@H](N)C[C@H](N)[C@H]9O[C@H]9O[C@H](CN)[C@@H](O)[C@H](O)[C@H]9N)[C@H](O)[C@@H]8O[C@H]8O[C@@H](CN)[C@@H](O)[C@H](O)[C@H]8N)nn7)cc6)[nH]c5c4)[nH]c3c2)CC1` the figure was 1.2e+07 M⁻¹; with `CN1CCN(c2ccc3nc(-c4ccc5nc(-c6ccc(OCCCCOCc7cn(C[C@H]8O[C@@H](O[C@@H]9[C@@H](O)[C@H](N)C[C@H](N)[C@H]9O[C@H]9O[C@H](CN)[C@@H](O)[C@H](O)[C@H]9N)[C@H](O)[C@@H]8O[C@H]8O[C@@H](CN)[C@@H](O)[C@H](O)[C@H]8N)nn7)cc6)[nH]c5c4)[nH]c3c2)CC1`, 7.4e+08 M⁻¹.
